Measurements taken from US9556217B2, “Amphiphilic compounds” (WISCONSIN ALUMNI RESEARCH FOUNDATION, priority 2012, dated 2017).

How the values were obtained:
[1] = molecular target: T1, cytidine-5′-monophosphate-sialic acid transporter (CMP-Sia) (Mus musculus, UniProt Q61420); experiment: CMP-Sia gel filtration integrity; set-up: species or system murine; settings: detergent at 0.042 wt %; 2 hours at 30° C.
T1 construct: GFP-His (C, cleaved yes); made in house; host or cells: Saccharomyces cerevisiae
T1 sequence (Q61420 1-336): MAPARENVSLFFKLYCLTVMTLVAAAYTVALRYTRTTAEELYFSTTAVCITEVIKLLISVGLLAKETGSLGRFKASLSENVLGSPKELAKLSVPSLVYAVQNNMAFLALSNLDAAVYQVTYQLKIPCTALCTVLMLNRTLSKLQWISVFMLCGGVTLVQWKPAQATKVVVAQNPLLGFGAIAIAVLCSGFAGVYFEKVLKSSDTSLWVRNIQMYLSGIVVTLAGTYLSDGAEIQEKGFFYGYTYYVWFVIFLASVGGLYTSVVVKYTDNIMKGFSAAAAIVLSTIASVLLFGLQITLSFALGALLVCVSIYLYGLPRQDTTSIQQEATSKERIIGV
Protocol: The promising behavior manifested by GDN in terms of the stability of bR and the R. capsulatus superassembly prompted the examining this amphiphile with another membrane protein, the murine cytidine-5′-monophosphate-sialic acid transporter (CMP-Sia) (Newstead et al., Proc. Natl. Acad. Sci. USA 2007, 104, 13936-13941). The protein was initially extracted from S. cereviseae membranes with 1% DDM and isolated in buffer containing 0.03% DDM. The final purified protein (6 mg/mL) was diluted 1:100 into solutions containing DDM or GDN at 0.042 wt % (which corresponds to CMC+0.033 wt % for DDM and CMC+0.04 wt % for GDN). The DDM- and GDN-solubilized CMP-Sia were analyzed by gel filtration before and after incubation for 2 hours at 30° C. (FIG. 5a, b).
Protein integrity was assessed using the procedure reported by Chae and coworkers (Nat. Methods 2010, 7, 1003-1008) using CMP-Sia instead of SQR.
CMP-Sia and GlpG were expressed as fusion proteins with a C-terminal GFP-His tag in Saccharomyces cerevisiae and Escherichia coli respectively. All steps were carried out at 4° C. Membranes containing CMP-Sia and GlpG were resuspended in PBS, 10 mM imidazole pH 8.0, 150 mM NaCl, 10% glycerol and solubilized in 1% DDM for 1 hour with mild agitation. Supernatant containing DDM-solubilized protein was harvested after ultracentrifugation at 100,000 g for 45 min. […]

[2] = molecular target: T2, CMP-Sia fusion protein bearing green fluorescent protein (GFP) (Mus musculus, UniProt Q61420); experiment: CMP-Sia-GFP fusion solubilization (fluorescence); settings: 1 hr at 4° C., total fluorescence
T2 construct: made in house; host or cells: Saccharomyces cerevisiae FGY217
Protocol: The favorable MelB extraction performance of GDN led to the examination of this amphiphile for extraction of other IMPs. […] DDM and GDN were used to extract a CMP-Sia fusion protein bearing green fluorescent protein (GFP) at the C-terminus, after expression in Saccharomyces cerevisiae; the amount of solubilized protein was estimated by total fluorescence. GDN (2 wt %), DDM (1 wt %) and OG (1 wt %) gave ˜70%, ˜80% and ˜50% extraction yields, respectively.
The procedure was performed according to the protocol reported by Chae and coworkers (Nat. Methods 2010, 7, 1003-1008).
CMP-Sia was expressed as a fusion protein with a C-terminal GFP in FGY217 Saccharomyces cerevisiae cells. Cell lysis was conducted by using a cell disrupter (Constant Systems) and the protein samples were subjected to centrifugation at 15,000 g for 10 mins to remove unbroken cells and debris. Subsequently, the membranes were harvested by ultracentrifugation at 150,000 g for 45 min. The membranes were resuspended in 50 mM Tris-HCl (pH 7.6), 1 mM EDTA, 0.6 M sorbitol and the protein concentration was estimated using a BCA kit (Pierce). The membranes were incubated with OG or DDM at 1.0%, or GDN at 2.0% for 1 hr at 4° C. A fluorescence value was measured for each sample before and after ultracentrifugation at 150,000 g for 1 h. The solubilization efficiency was calculated via the fluorescence measurements of the soluble supernatant/the total sample.

Row | SMILES | CMP-Sia integrity after incubation (gel filtration) [1] | CMP-Sia-GFP extraction yield ([2]; 2 wt %) | CMP-Sia-GFP extraction yield ([2]; 1 wt %)
1 | C[C@@H]1CC[C@@]2(OC1)O[C@H]1C[C@H]3[C@@H]4CC=C5C[C@@H](OCCC(CO[C@@H]6OC(CO)[C@@H](O[C@H]7OC(CO)[C@@H](O)C(O)C7O)C(O)C6O)CO[C@@H]6OC(CO)[C@@H](O[C@H]7OC(CO)[C@@H](O)C(O)C7O)C(O)C6O)CC[C@]5(C)[C@H]4CC[C@]3(C)[C@@H]1[C@@H]2C (stereo partly shown) [GDN, glyco-diosgenin] | > 90% | ~70% | 
2 | CCCCCCCCCCCCO[C@@H]1O[C@H](CO)[C@@H](O[C@H]2O[C@H](CO)[C@@H](O)[C@H](O)[C@H]2O)[C@H](O)[C@H]1O [DDM, dodecyl-β-D-maltoside, reference compound] | ~50% |  | ~80%
